We go through ten molecules from patent publication EP0703222A1, “3-AMINOAZEPINE COMPOUND AND PHARMACEUTICAL USE THEREOF” (YOSHITOMI PHARMACEUTICAL INDUSTRIES, LTD., priority 1993, dated 1994).

The target of assay [1] is T1, CCK-B receptor (Rattus norvegicus, UniProt P30553).
T1 construct: cerebral cortex from rat was prepared and suspended in a buffer; from tissue; host or cells: rat cerebral cortex membrane suspension
T1 sequence (P30553 1-452): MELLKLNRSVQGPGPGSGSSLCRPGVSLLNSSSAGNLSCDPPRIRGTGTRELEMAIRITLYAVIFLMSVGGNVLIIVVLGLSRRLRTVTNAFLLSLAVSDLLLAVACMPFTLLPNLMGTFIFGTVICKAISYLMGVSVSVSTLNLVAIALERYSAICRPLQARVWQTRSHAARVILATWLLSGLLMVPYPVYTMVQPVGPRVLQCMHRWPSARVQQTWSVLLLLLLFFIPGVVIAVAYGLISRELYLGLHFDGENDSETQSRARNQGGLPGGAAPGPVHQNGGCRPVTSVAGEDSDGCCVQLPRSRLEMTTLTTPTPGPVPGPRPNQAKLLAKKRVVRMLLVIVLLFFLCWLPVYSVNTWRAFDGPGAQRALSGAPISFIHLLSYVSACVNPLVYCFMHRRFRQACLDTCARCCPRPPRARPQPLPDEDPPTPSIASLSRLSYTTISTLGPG
The assay is described as follows: CCK-B receptor binding test (brain). Conditions: for Ki: rat cerebral cortex membranes, 125I-CCK-8, 20°C, 30 minutes, read-out: binding affinity (Ki,nM) CCK-B; for selectivity (A/B): ratio CCK-A / CCK-B binding affinity. The protocol:
Experimental Example 2 : CCK-B receptor binding test (brain)
In the case of the central nervous system, cerebral cortex from rat was prepared and suspended in a buffer, pH 6.5, containing 5 mM magnesium chloride, 1 mM EGTA [ethylene glycol bis(2-aminoethylether)tetraacetic acid], 360 mM sodium chloride, 15 mM potassium chloride, 20 mM HEPES (N-2-hydroxyethylpiperazine-N'-2-ethanesulfonic acid) and 0.25 mg/ml bacitracin. For binding assay, 50 µl of a buffer (for total binding), unlabeled CCK-8 sulfate (for nonspecific binding) having a final concentration of 1 µM or a test compound (for determining inhibition of ¹²⁵I-CCK binding) and 50 µl of ¹²⁵I-CCK-8 (63-67 TBq/mmol, 40,000 - 50,000 cpm) were added to a membrane suspension (450 µl, containing 100 µg protein). The reaction mixture was incubated at 20°C for 30 minutes, filtered by suction through a glass fiber filter (Whatman GF/B), and immediately thereafter washed 3 times with ice-cooled Tris buffer (2.5 ml). The radioactive concentration on the filter was measured.
(§1) Inhibition (%) = 100 -((binding when compound added - nonspecific binding))/((total binding - nonspecific binding))× 100 [formula]

Assay [2] deals with T2, CCK-A receptor (Rattus norvegicus, UniProt P30551).
T2 construct: The whole pancreas was removed from a male rat; from tissue; host or cells: rat pancreas membrane homogenate
T2 sequence (P30551 1-444): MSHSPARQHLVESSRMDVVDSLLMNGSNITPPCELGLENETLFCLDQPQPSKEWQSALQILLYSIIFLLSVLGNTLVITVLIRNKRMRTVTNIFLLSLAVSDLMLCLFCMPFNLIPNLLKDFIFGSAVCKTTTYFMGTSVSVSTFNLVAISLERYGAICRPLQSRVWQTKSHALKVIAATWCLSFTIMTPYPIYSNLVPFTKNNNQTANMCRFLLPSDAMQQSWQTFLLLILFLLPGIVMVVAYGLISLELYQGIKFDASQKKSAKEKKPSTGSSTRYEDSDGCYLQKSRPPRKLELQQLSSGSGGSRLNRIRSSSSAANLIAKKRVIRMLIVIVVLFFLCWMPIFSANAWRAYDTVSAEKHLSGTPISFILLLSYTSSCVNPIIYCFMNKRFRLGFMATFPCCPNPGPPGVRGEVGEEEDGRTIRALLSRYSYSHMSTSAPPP
The assay is described as follows: CCK-A receptor binding test (pancreas). Conditions: for Ki: rat pancreas membranes, 125I-CCK-8, 20°C, 30 minutes, read-out: binding affinity (Ki,nM) CCK-A; for affinity for CCK-A receptor (in words): summary of the binding results in the text. The procedure:
Experimental Example 1 : CCK-A receptor binding test (pancreas)
The whole pancreas was removed from a male rat. The fat tissues were removed and the pancreas was homogenized (Brinkman Polytron PT20) in 50 mM Tris hydrochloric acid (pH 7.5). The homogenate was filtered through a nylon cloth (120 mesh) and centrifuged at 50,000 × g for 12 minutes. The obtained sediment was homogenized in Tris buffer as in the above and centrifuged. The sediment was suspended in a buffer for binding assay [50 mM Tris-HCl (pH 7.2) containing 5 mM magnesium chloride, 5 mM dithiothreitol, 2 mg/ml bovine serum albumin, 0.1 mg/ml bacitracin and 0.14 mg/ml trypsin inhibitor (soybean)] and used as a receptor source.
For binding assay, 50 µl of a buffer (for total binding), unlabeled CCK-8 sulfate (for nonspecific binding) having a final concentration of […] or a test compound (for determining inhibition of ¹²⁵I-CCK binding) and 50 µl of ¹²⁵I-CCK-8 (63-67 TBq/mmol, 40,000-50,000 cpm) were added to a membrane suspension (450 µl, containing 100 µg protein). The reaction mixture was incubated at 20°C for 30 minutes, filtered by suction through a glass fiber filter (Whatman GF/B), and immediately thereafter washed 3 times with ice-cooled Tris buffer (2.5 ml). The radioactive concentration on the filter was measured.
as §1

In the case of `CN1C(=O)C(NC(=O)c2cc3ccccc3[nH]2)C=C(c2ccccc2)c2ccccc21` (single isomer, unassigned; (+)) [Example 36, (+)-N-(1-methyl-2-oxo-5-phenyl-2,3-dihydro-1H-1-benzazepin-3-yl)-2-indolecarboxamide], in assay [1], the Ki was greater than 1000 nM and the “selectivity (A/B)” value was less than 0.0047. Also, in assay [2], the Ki was determined as 4.7 nM and the “affinity for CCK-A receptor (in words)” value was “strong, selective affinity for CCK-A receptor”.

Consider `Cc1ccccc1C(=O)CN1C(=O)C(NC(=O)c2cc3ccccc3[nH]2)C=C(c2ccccc2)c2ccccc21` (single isomer, unassigned; (+)) [Example 81, (+)-N-(1-(2'-methylphenacyl)-2-oxo-5-phenyl-2,3-dihydro-1H-1-benzazepin-3-yl)-2-indole carboxamide], for which, in assay [1], the Ki is greater than 1000 nM and the “selectivity (A/B)” value is recorded as less than 0.042. For the same molecule, in assay [2], the Ki was found to be 42 nM and the “affinity for CCK-A receptor (in words)” value is “strong, selective affinity for CCK-A receptor”.

With `CCOC(=O)CN1C(=O)C(NC(=O)Nc2cccc(C)c2)C=C(c2ccccc2)c2ccccc21` (single isomer, unassigned; (-)) [Example 46, (-)-1-(1-ethoxycarbonylmethyl-2-oxo-5-phenyl-2,3-dihydro-1H-1-benzazepin-3-yl)-3-(3-methylphenyl)urea], in assay [1], the Ki was 0.87 nM and the “selectivity (A/B)” value is 110. Also, the Ki in assay [2] came out at 100 nM.

For `CCOC(=O)CN1C(=O)C(NC(=O)Nc2ccc(C)cc2)C=C(c2ccccc2)c2ccccc21` (single isomer, unassigned; (-)) [Example 48, (-)-1-(1-ethoxycarbonylmethyl-2-oxo-5-phenyl-2,3-dihydro-1H-1-benzazepin-3-yl)-3-(4-methylphenyl)urea], in assay [1], the Ki is 2.1 nM and the “selectivity (A/B)” value was found to be 100. Moreover, the Ki in assay [2] stood at 210 nM.

On to `CCOC(=O)CN1C(=O)C(NC(=O)Nc2cccc(OC)c2)C=C(c2ccccc2)c2ccccc21` (single isomer, unassigned; (-)) [Example 52, (-)-1-(1-ethoxycarbonylmethyl-2-oxo-5-phenyl-2,3-dihydro-1H-1-benzazepin-3-yl)-3-(3-methoxyphenyl)urea], for which, in assay [1], the Ki worked out at 0.92 nM and the “selectivity (A/B)” value was determined as 120. Besides, the Ki in assay [2] was determined as 110 nM.

Turning to `Cc1ccc(NC(=O)NC2C=C(c3ccccc3)c3ccccc3N(CC(=O)c3ccccc3C)C2=O)cc1` (single isomer, unassigned; (-)) [Example 64, (-)-1-(1-(2'-methylphenacyl)-2-oxo-5-phenyl-2,3-dihydro-1H-1-benzazepin-3-yl)-3-(4-methylphenyl)urea], in assay [1], the inhibition constant (Ki) is 1.1 nM and the “selectivity (A/B)” value turned out to be 180. Besides, the Ki in assay [2] was determined as 200 nM.

As for `Cc1ccccc1NC(=O)NC1C=C(c2ccccc2)c2ccccc2N(CC(=O)c2ccccc2C)C1=O` (single isomer, unassigned; (-)) [Example 66, (-)-1-(1-(2'-methylphenacyl)-2-oxo-5-phenyl-2,3-dihydro-1H-1-benzazepin-3-yl)-3-(2-methylphenyl)urea], in assay [1], the Ki worked out at 2.5 nM and the “selectivity (A/B)” value was 124. For the same molecule, in assay [2], the Ki came to 310 nM.

`COc1ccc(NC(=O)NC2C=C(c3ccccc3)c3ccccc3N(CC(=O)c3ccccc3C)C2=O)cc1` (single isomer, unassigned; (-)) [Example 68, (-)-1-(4-methoxyphenyl)-3-(1-(2'-methylphenacyl)-2-oxo-5-phenyl-2,3-dihydro-1H-1-benzazepin-3-yl)urea]: the Ki in assay [1] stood at 1.1 nM; in assay [2], 150 nM. Also, the “selectivity (A/B)” value in assay [1] turned out to be 140.

Take `Cc1ccccc1C(=O)CN1C(=O)C(NC(=O)Nc2ccccc2Cl)C=C(c2ccccc2)c2ccccc21` (single isomer, unassigned; (-)) [Example 74, (-)-1-(2-chlorophenyl)-3-(1-(2'-methylphenacyl)-2-oxo-5-phenyl-2,3-dihydro-1H-1-benzazepin-3-yl)urea]: the Ki in assay [1] worked out at 2.4 nM; in assay [2], 290 nM. Further, the “selectivity (A/B)” value in assay [1] worked out at 120.

On to `Cc1cccc(NC(=O)N[C@@H]2N=C(c3ccccc3)c3ccccc3N(C)C2=O)c1` [Example L-365260, (R)-N-(2,3-dihydro-1-methyl-2-oxo-5-phenyl-1H-1,4-benzodiazepin-3-yl)-N'-(3-methylphenyl)urea, reference compound], for which the Ki is 19 nM in assay [1] and 390 nM in assay [2]. The “selectivity (A/B)” value in assay [1] is listed as 21.

Broadly, the Ki is the equilibrium dissociation constant of an inhibitor or competing ligand from its target.
